Measured values reported in ChEMBL document CHEMBL2163297, “Discovery of novel PI3-kinase δ specific inhibitors for the treatment of rheumatoid arthritis: taming CYP3A4 time-dependent inhibition” (J Med Chem, 2012).

Assays:
[1] = biological target: T1, Phosphatidylinositol 4,5-bisphosphate 3-kinase catalytic subunit delta isoform (Homo sapiens, UniProt O00329); experiment: Inhibition of human PI3Kdelta-mediated AKT phosphorylation at S473 in Ri-1 cells after 30 mins by electrochemiluminescence assay in presence of human serum albumin and alpha1 acid glycoprotein; assay type: cell-based
T1 sequence (O00329 whole entry): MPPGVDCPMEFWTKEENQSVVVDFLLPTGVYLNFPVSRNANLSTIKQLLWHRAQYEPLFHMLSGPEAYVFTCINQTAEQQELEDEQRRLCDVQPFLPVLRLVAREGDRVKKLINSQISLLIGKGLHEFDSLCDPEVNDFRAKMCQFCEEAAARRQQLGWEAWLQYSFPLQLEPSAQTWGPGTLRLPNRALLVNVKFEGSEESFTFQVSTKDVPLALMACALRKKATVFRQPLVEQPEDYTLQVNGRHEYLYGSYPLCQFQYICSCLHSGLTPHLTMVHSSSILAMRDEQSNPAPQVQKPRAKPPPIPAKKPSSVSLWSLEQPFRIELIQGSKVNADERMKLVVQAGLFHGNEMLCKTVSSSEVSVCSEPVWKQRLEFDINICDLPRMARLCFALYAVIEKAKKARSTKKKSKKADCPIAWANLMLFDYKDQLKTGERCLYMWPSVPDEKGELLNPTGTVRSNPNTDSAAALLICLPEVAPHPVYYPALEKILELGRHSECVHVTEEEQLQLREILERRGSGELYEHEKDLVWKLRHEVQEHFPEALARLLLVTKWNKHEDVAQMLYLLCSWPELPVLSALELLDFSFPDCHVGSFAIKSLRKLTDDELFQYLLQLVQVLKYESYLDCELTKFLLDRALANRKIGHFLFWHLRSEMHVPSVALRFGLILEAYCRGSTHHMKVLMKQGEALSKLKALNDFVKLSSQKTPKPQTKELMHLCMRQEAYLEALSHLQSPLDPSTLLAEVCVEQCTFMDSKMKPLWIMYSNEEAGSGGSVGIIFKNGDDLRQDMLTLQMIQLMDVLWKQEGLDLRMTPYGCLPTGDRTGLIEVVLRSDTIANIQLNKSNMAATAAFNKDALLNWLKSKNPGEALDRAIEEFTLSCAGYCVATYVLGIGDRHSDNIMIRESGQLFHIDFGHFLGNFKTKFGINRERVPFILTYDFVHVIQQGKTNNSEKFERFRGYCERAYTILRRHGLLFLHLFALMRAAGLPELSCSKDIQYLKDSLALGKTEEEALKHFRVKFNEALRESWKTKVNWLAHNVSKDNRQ

[2] = biological target: T1, Phosphatidylinositol 4,5-bisphosphate 3-kinase catalytic subunit delta isoform
Description: Binding affinity to PI3Kdelta after 30 mins by competitive fluorescence polarization assay

[3] = Selectivity ratio of IC50 for PI3Kalpha to IC50 for PI3Kdelta
[4] = Volume of distribution at steady state in […] Wistar rat at 0.5 mg/kg, iv and 2 mg/kg, po; assay type: ADME, organism-based; conditions: in vivo, read-out: Vdss
Liver microsomes [5] = experiment: Metabolic stability in rat liver microsomes; assay type: ADME, Microsome
[6] = Selectivity ratio of IC50 for PI3Kbeta to IC50 for PI3Kdelta
CYP3A4 = CYP3A4 (Homo sapiens, UniProt P08684); experiment: (§1) Time dependent inhibition of CYP3A4 in human liver microsomes preincubated for 30 mins; assay type: ADME, Microsome; conditions: human, liver microsomes
CYP3A4, sequence (P08684 whole entry): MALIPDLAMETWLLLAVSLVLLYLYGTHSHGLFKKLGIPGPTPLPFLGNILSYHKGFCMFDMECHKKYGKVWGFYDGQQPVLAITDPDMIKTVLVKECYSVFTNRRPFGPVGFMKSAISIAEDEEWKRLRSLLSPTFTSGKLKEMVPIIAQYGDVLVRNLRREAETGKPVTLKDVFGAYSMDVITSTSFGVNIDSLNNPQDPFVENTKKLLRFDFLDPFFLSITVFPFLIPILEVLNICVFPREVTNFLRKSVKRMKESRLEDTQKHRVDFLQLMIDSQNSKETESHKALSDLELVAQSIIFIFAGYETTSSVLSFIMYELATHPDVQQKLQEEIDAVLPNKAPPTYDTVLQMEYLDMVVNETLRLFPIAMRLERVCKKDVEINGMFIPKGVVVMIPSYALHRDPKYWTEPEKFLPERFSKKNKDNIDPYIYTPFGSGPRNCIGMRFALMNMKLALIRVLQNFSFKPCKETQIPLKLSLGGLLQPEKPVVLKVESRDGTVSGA

Cytochrome P450 3A4 [7] = biological target: T2, Cytochrome P450 3A4 (Homo sapiens, UniProt P08684); experiment: as §1; assay type: ADME, Microsome
T2 sequence (P08684 whole entry): as above

Liver microsomes [8] = experiment: Metabolic stability in human liver microsomes; assay type: ADME, Microsome
[9] = Selectivity ratio of IC50 for PI3Kgamma to IC50 for PI3Kdelta
[10] = Clearance in […] Wistar rat at 0.5 mg/kg, iv and 2 mg/kg, po; assay type: ADME, organism-based; conditions: in vivo
[11] = Oral bioavailability in […] Wistar rat at 2 mg/kg; assay type: ADME, organism-based; conditions: in vivo
Cytochrome P450 3A4 [12] = biological target: T2, Cytochrome P450 3A4; experiment: Inhibition of CYP3A4 in human liver microsomes; assay type: ADME, Microsome; conditions: TDE = time-dependent effect
[13] = biological target: T3, Phosphatidylinositol 4,5-bisphosphate 3-kinase catalytic subunit delta isoform (Homo sapiens) (UniProt O00329); experiment: Ratio of IC50 for human PI3Kdelta-mediated AKT phosphorylation at S473 in Ri-1 cells to IC50 for PI3Kdelta; assay type: cell-based
T3 sequence (whole entry): T1 sequence (O00329 whole entry)

SMILES | IC50 [1] [nM] | IC50 [2] [nM] | Ratio IC50 [3] | Ratio IC50 [6] | IC50 (Cytochrome P450 3A4 [7]) [nM] | Ratio IC50 [9] | further results
Cc1cccc(-c2nc(N3CCOCC3)c3sc(CN4CCC(N(C)C)CC4)cc3n2)c1 | 1300 | 12 | 98 |  |  |  | 
CN(C)C1CCN(Cc2cc3nc(-c4c[nH]c5ccccc45)nc(N4CCOCC4)c3s2)CC1 |  | 5.6 | 88 |  |  |  | 
CC(C)(C(N)=O)N1CCN(Cc2cc3nc(-c4c(F)ccc5[nH]ccc45)nc(N4CCOCC4)c3s2)CC1 |  | 3 | 194 | 102 | 1500 | 1880 | Vd [4]: 2.38 L/kg; Stability (Liver microsomes [5]): 90.8%; kinact at 30 min (CYP3A4): 0.00123 s⁻¹; Ki (Cytochrome P450 3A4 [7]): 6600 nM; Stability (Liver microsomes [8]): 82.5%; clearance [10]: 31.3 mL/min/kg; bioavailability [11]: 75.2%
CC(C)(C(N)=O)N1CCN(Cc2cc3nc(-c4cncc5[nH]ccc45)nc(N4CCOCC4)c3s2)CC1 |  | 0.67 | 41 | 40 | 3200 | 243 | 
CCc1nc2ccccc2n1-c1nc(N2CCOCC2)c2sc(CN3CCC(C(C)(C)O)CC3)cc2n1 |  |  |  |  | > 10000 |  | 
CC(C)(C(N)=O)N1CCN(Cc2cc3nc(-c4cccc5[nH]ccc45)nc(N4CCOCC4)c3s2)CC1 |  | 1.8 | 129 | 104 |  | 1440 | inhibition (INH) (Cytochrome P450 3A4 [12]): tde
Cn1ccc2c(-c3nc(N4CCOCC4)c4sc(CN5CCN(C(C)(C)C(N)=O)CC5)cc4n3)cccc21 |  | 134 | 18 | 75 | > 10000 | 75 | 
CCc1nc2ccccc2n1-c1nc(N2CCOCC2)c2sc(CN3CCN(C4COC4)CC3(C)C)cc2n1 | 102 | 2.3 | 50 | 815 | > 10000 | 112 | 
CC(C)(C(N)=O)N1CCN(Cc2cc3nc(-c4nccc5[nH]ccc45)nc(N4CCOCC4)c3s2)CC1 |  | 3.5 | 86 | 46 | > 10000 | 2830 | 
CN(C)C1CCN(Cc2cc3nc(-n4ncc5ccccc54)nc(N4CCOCC4)c3s2)CC1 | 3200 | 16 | 39 |  |  |  | 
CN(C)C1CCN(Cc2cc3nc(-c4cccc5c4CC(=O)N5)nc(N4CCOCC4)c3s2)CC1 | 3400 | 41 | 8 |  |  |  | 
Fc1ccc2[nH]ccc2c1-c1nc(N2CCOCC2)c2sc(CN3CCN4CCOC[C@H]4C3)cc2n1 |  | 9 | 42 | 69 | 7000 | 806 | Vd [4]: 2.76 L/kg; Stability (Liver microsomes [5]): 72.5%; kinact at 30 min (CYP3A4): 0.0008 s⁻¹; Ki (Cytochrome P450 3A4 [7]): 78000 nM; Stability (Liver microsomes [8]): 68.7%; clearance [10]: 25.2 mL/min/kg; bioavailability [11]: 75.5%
CS(=O)(=O)N1CCN(Cc2cc3nc(-c4cccc5[nH]ccc45)nc(N4CCOCC4)c3s2)CC1 |  | 1.7 | 22 | 25 |  | 268 | inhibition (INH) (Cytochrome P450 3A4 [12]): tde
CN(C)C1CCN(Cc2cc3nc(-c4c(F)ccc5[nH]ccc45)nc(N4CCOCC4)c3s2)CC1 | 29 | 1.8 | 226 |  | 9100 |  | Ratio IC50 [13]: 16
Cc1ncc2ccccc2c1-c1nc(N2CCOCC2)c2sc(CN3CCC(N(C)C)CC3)cc2n1 | 2000 | 29 | 144 |  |  |  | 
CC(C)(C(N)=O)N1CCN(Cc2cc3nc(-c4ccnc5[nH]ccc45)nc(N4CCOCC4)c3s2)CC1 |  | 2.3 | 30 | 103 | < 100 | 81 | 
CN(C)C1CCN(Cc2cc3nc(-n4ccc5ccccc54)nc(N4CCOCC4)c3s2)CC1 | 420 | 10 | 54 |  |  |  | 
CC(C)(C(N)=O)N1CCN(Cc2cc3nc(-c4cc(C#N)cc5[nH]ccc45)nc(N4CCOCC4)c3s2)CC1 |  | 3.2 | 208 | 275 | 1200 | 691 | 
Cc1nc2ccccc2n1-c1nc(N2CCOCC2)c2sc(CN3CCN(C(C)(C)C(N)=O)CC3)cc2n1 |  | 4.3 | 17 | 111 | > 10000 | 134 | 
CC(C)(C(N)=O)N1CCN(Cc2cc3nc(-c4cc(F)cc5[nH]ccc45)nc(N4CCOCC4)c3s2)CC1 |  | 0.48 | 77 | 80 | 510 | 566 | 
Cc1cc2c(-c3nc(N4CCOCC4)c4sc(CN5CCN(C(C)(C)C(N)=O)CC5)cc4n3)cccc2[nH]1 |  | 1.1 | 122 | 101 | < 100 | 715 | 
CC(C)(C(N)=O)N1CCN(Cc2cc3nc(-c4c(F)cc(F)c5[nH]ccc45)nc(N4CCOCC4)c3s2)CC1 |  | 6 | 96 | 137 | 600 | 350 | 
CN(C)C1CCN(Cc2cc3nc(-c4cccc5nccn45)nc(N4CCOCC4)c3s2)CC1 | 180 | 27 | 21 |  |  |  | 
CN(C)C1CCN(Cc2cc3nc(-n4cnc5ccccc54)nc(N4CCOCC4)c3s2)CC1 | 970 | 23 | 14 |  |  |  | Ratio IC50 [13]: 42
CN(C)C1CCN(Cc2cc3nc(-c4n[nH]c5ccccc45)nc(N4CCOCC4)c3s2)CC1 |  | 9.8 | 65 |  |  |  | 
CCc1nc2ccccc2n1-c1nc(N2CCOCC2)c2sc(CN3CCN(S(C)(=O)=O)CC3)cc2n1 | 79 | 4.3 | 2 | 12 | > 10000 | 14 | 
Cc1nc2ccccc2n1-c1nc(N2CCOCC2)c2sc(CN3CCC(N(C)C)CC3)cc2n1 | 374 | 2.7 | 29 | 252 | > 10000 | 233 | 
CC(C)(C(N)=O)N1CCN(Cc2cc3nc(-c4cccc5[nH]ncc45)nc(N4CCOCC4)c3s2)CC1 |  | 3.1 | 9 | 54 |  | 153 | 
